# Measured values: PubChem BioAssay AID248 (DTP/NCI, 2004)
# Several values for one entry are separate records, joined by “and”; a condition that tells them apart may be missing. Equal values may be shown once. Toxic doses and inconclusive results are not listed.
# Tested on: L1210 leukemia ip in BDF1 mice, survival T/C
# Assay: NCI In Vivo Anticancer Drug Screen. Data for tumor model L1210 Leukemia (intraperitoneal) in B6D2F1 (BDF1) mice
# Conditions: higher = longer survival
# Summary of the method: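 In this screen, tumor-bearing mice given compound are compared to those given vehicle, and their survival values are reported as a treated-to-control quotient.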
smiles,measurement,setting,value
S=P(N1CCOCC1)(N1CC1)N1CC1,T/C,"endpoint: mean survival time, dose: 2.4 mg/kg/injection, schedule: Q01DX001 (ip), vehicle: saline",106 % of control
same,T/C,"endpoint: mean survival time, dose: 2.4 mg/kg/injection, schedule: Q07DX003 (ip), vehicle: saline",104 % of control
same,T/C,"endpoint: mean survival time, dose: 2.5 mg/kg/injection, schedule: Q01DX Z (ip), vehicle: carboxymethylcellulose (CMC)",109 % of control
same,T/C,"endpoint: mean survival time, dose: 2.5 mg/kg/injection, schedule: Q#A X Z (ip), vehicle: saline",102 % of control
same,T/C,"endpoint: mean survival time, dose: 4.3 mg/kg/injection, schedule: Q01DX001 (ip), vehicle: saline",117 % of control
same,T/C,"endpoint: mean survival time, dose: 4.3 mg/kg/injection, schedule: Q07DX003 (ip), vehicle: saline",113 % of control
same,T/C,"endpoint: mean survival time, dose: 5.0 mg/kg/injection, schedule: Q01DX006 (iv), vehicle: saline",107 % of control
same,T/C,"endpoint: mean survival time, dose: 5.0 mg/kg/injection, schedule: Q01DX009 (ip), vehicle: saline",101 % of control and 104 % of control
same,T/C,"endpoint: mean survival time, dose: 5.0 mg/kg/injection, schedule: Q01DX010 (ip), vehicle: saline",97 % of control and 103 % of control
same,T/C,"endpoint: mean survival time, dose: 5.0 mg/kg/injection, schedule: Q01DX Z (im), vehicle: saline",104 % of control
same,T/C,"endpoint: mean survival time, dose: 5.0 mg/kg/injection, schedule: Q01DX Z (ip), vehicle: carboxymethylcellulose (CMC)",102 % of control
same,T/C,"endpoint: mean survival time, dose: 5.0 mg/kg/injection, schedule: Q01DX Z (ip), vehicle: saline",110 % of control
same,T/C,"endpoint: mean survival time, dose: 5.0 mg/kg/injection, schedule: Q01DX Z (sc), vehicle: saline",107 % of control
same,T/C,"endpoint: mean survival time, dose: 5.0 mg/kg/injection, schedule: Q#A X Z (ip), vehicle: saline",106 % of control
same,T/C,"endpoint: mean survival time, dose: 8.7 mg/kg/injection, schedule: Q01DX001 (ip), vehicle: saline",103 % of control
same,T/C,"endpoint: mean survival time, dose: 8.7 mg/kg/injection, schedule: Q07DX003 (ip), vehicle: saline",115 % of control
same,T/C,"endpoint: mean survival time, dose: 10.0 mg/kg/injection, schedule: Q01DX006 (iv), vehicle: saline",109 % of control
same,T/C,"endpoint: mean survival time, dose: 10.0 mg/kg/injection, schedule: Q01DX009 (ip), vehicle: saline",101 % of control and 104 % of control
same,T/C,"endpoint: mean survival time, dose: 10.0 mg/kg/injection, schedule: Q01DX010 (ip), vehicle: saline",114 % of control and 124 % of control
same,T/C,"endpoint: mean survival time, dose: 10.0 mg/kg/injection, schedule: Q01DX Z (im), vehicle: saline",114 % of control
same,T/C,"endpoint: mean survival time, dose: 10.0 mg/kg/injection, schedule: Q01DX Z (ip), vehicle: carboxymethylcellulose (CMC)",115 % of control
same,T/C,"endpoint: mean survival time, dose: 10.0 mg/kg/injection, schedule: Q01DX Z (ip), vehicle: saline",116 % of control
same,T/C,"endpoint: mean survival time, dose: 10.0 mg/kg/injection, schedule: Q01DX Z (sc), vehicle: saline",107 % of control
same,T/C,"endpoint: mean survival time, dose: 15.0 mg/kg/injection, schedule: Q03DX006 (ip), vehicle: saline",118 % of control
same,T/C,"endpoint: mean survival time, dose: 17.5 mg/kg/injection, schedule: Q01DX001 (ip), vehicle: saline",106 % of control
same,T/C,"endpoint: mean survival time, dose: 18.0 mg/kg/injection, schedule: Q01DX003 (ip), vehicle: saline",118 % of control
same,T/C,"endpoint: mean survival time, dose: 20.0 mg/kg/injection, schedule: Q01DX009 (ip), vehicle: saline",108 % of control and 120 % of control
same,T/C,"endpoint: mean survival time, dose: 20.0 mg/kg/injection, schedule: Q01DX010 (ip), vehicle: saline",118 % of control and 119 % of control
same,T/C,"endpoint: mean survival time, dose: 20.0 mg/kg/injection, schedule: Q01DX Z (im), vehicle: saline",168 % of control
same,T/C,"endpoint: mean survival time, dose: 20.0 mg/kg/injection, schedule: Q01DX Z (ip), vehicle: carboxymethylcellulose (CMC)",123 % of control
same,T/C,"endpoint: mean survival time, dose: 20.0 mg/kg/injection, schedule: Q01DX Z (ip), vehicle: saline",160 % of control
same,T/C,"endpoint: mean survival time, dose: 20.0 mg/kg/injection, schedule: Q01DX Z (oral), vehicle: saline",122 % of control
same,T/C,"endpoint: mean survival time, dose: 26.0 mg/kg/injection, schedule: Q01DX003 (ip), vehicle: saline",166 % of control
same,T/C,"endpoint: mean survival time, dose: 30.0 mg/kg/injection, schedule: Q03DX006 (ip), vehicle: saline",160 % of control
same,T/C,"endpoint: mean survival time, dose: 35.0 mg/kg/injection, schedule: Q01DX001 (ip), vehicle: saline",120 % of control
same,T/C,"endpoint: mean survival time, dose: 40.0 mg/kg/injection, schedule: Q01DX003 (ip), vehicle: saline",150 % of control and 173 % of control
same,T/C,"endpoint: mean survival time, dose: 40.0 mg/kg/injection, schedule: Q01DX009 (ip), vehicle: saline",101 % of control and 104 % of control
same,T/C,"endpoint: mean survival time, dose: 40.0 mg/kg/injection, schedule: Q01DX010 (ip), vehicle: saline",104 % of control
same,T/C,"endpoint: mean survival time, dose: 40.0 mg/kg/injection, schedule: Q01DX Z (im), vehicle: saline",110 % of control
same,T/C,"endpoint: mean survival time, dose: 40.0 mg/kg/injection, schedule: Q01DX Z (ip), vehicle: saline",89 % of control
same,T/C,"endpoint: mean survival time, dose: 40.0 mg/kg/injection, schedule: Q#A X Z (ip), vehicle: saline",92 % of control
same,T/C,"endpoint: mean survival time, dose: 60.0 mg/kg/injection, schedule: Q01DX003 (ip), vehicle: saline",156 % of control and 178 % of control
same,T/C,"endpoint: mean survival time, dose: 70.0 mg/kg/injection, schedule: Q07DX003 (ip), vehicle: saline",178 % of control
same,T/C,"endpoint: mean survival time, dose: 80.0 mg/kg/injection, schedule: Q01DX006 (iv), vehicle: saline",164 % of control
same,T/C,"endpoint: mean survival time, dose: 80.0 mg/kg/injection, schedule: Q01DX Z (oral), vehicle: saline",100 % of control
same,T/C,"endpoint: mean survival time, dose: 140.0 mg/kg/injection, schedule: Q01DX001 (ip), vehicle: saline",107 % of control
same,T/C,"endpoint: mean survival time, dose: 280.0 mg/kg/injection, schedule: Q01DX001 (ip), vehicle: saline",102 % of control
same,T/C,"endpoint: median survival time, dose: 5.0 mg/kg/injection, schedule: Q01DX009 (ip), vehicle: saline",100 % of control and 111 % of control
same,T/C,"endpoint: median survival time, dose: 10.0 mg/kg/injection, schedule: Q01DX009 (ip), vehicle: saline",106 % of control and 122 % of control
same,T/C,"endpoint: median survival time, dose: 20.0 mg/kg/injection, schedule: Q01DX009 (ip), vehicle: saline",166 % of control and 168 % of control
same,T/C,"endpoint: median survival time, dose: 40.0 mg/kg/injection, schedule: Q01DX009 (ip), vehicle: saline",122 % of control
CNC(=O)N(C(C)C)C1CCCCC1,T/C,"endpoint: mean survival time, dose: 100.0 mg/kg/injection, schedule: Q04DX003 (ip), vehicle: other",102 % of control
same,T/C,"endpoint: mean survival time, dose: 200.0 mg/kg/injection, schedule: Q04DX003 (ip), vehicle: other",96 % of control
O=S(=O)(NC1CCC(CC2CCCCC2)CC1)c1ccccc1 (centres undefined),T/C,"endpoint: mean survival time, dose: 100.0 mg/kg/injection, schedule: Q01DX009 (ip), vehicle: Klucel (hydroxypropylcellulose) (HPC)",101 % of control
same,T/C,"endpoint: mean survival time, dose: 100.0 mg/kg/injection, schedule: Q04DX003 (ip), vehicle: Klucel (hydroxypropylcellulose) (HPC)",96 % of control
same,T/C,"endpoint: mean survival time, dose: 200.0 mg/kg/injection, schedule: Q01DX009 (ip), vehicle: Klucel (hydroxypropylcellulose) (HPC)",104 % of control
same,T/C,"endpoint: mean survival time, dose: 200.0 mg/kg/injection, schedule: Q04DX003 (ip), vehicle: Klucel (hydroxypropylcellulose) (HPC)",97 % of control
same,T/C,"endpoint: mean survival time, dose: 400.0 mg/kg/injection, schedule: Q01DX009 (ip), vehicle: Klucel (hydroxypropylcellulose) (HPC)",106 % of control
same,T/C,"endpoint: mean survival time, dose: 400.0 mg/kg/injection, schedule: Q04DX003 (ip), vehicle: Klucel (hydroxypropylcellulose) (HPC)",94 % of control
NC(=O)Oc1ccc(C2CC(=O)C(C(N)=O)C(=O)C2)cc1 (centres undefined),T/C,"endpoint: mean survival time, dose: 100.0 mg/kg/injection, schedule: Q01DX001 (ip), vehicle: other",97 % of control
same,T/C,"endpoint: mean survival time, dose: 100.0 mg/kg/injection, schedule: Q04DX003 (ip), vehicle: saline with Tween-80",108 % of control
same,T/C,"endpoint: mean survival time, dose: 200.0 mg/kg/injection, schedule: Q01DX001 (ip), vehicle: other",92 % of control
same,T/C,"endpoint: mean survival time, dose: 200.0 mg/kg/injection, schedule: Q04DX003 (ip), vehicle: saline with Tween-80",103 % of control
same,T/C,"endpoint: mean survival time, dose: 400.0 mg/kg/injection, schedule: Q01DX001 (ip), vehicle: other",94 % of control
same,T/C,"endpoint: mean survival time, dose: 400.0 mg/kg/injection, schedule: Q04DX003 (ip), vehicle: saline with Tween-80",100 % of control
CC(NC(=O)OCc1ccccc1)C(=O)Nc1ccc(C(=O)O)c(O)c1 (centres undefined),T/C,"endpoint: mean survival time, dose: 100.0 mg/kg/injection, schedule: Q01DX009 (ip), vehicle: saline with Tween-80",90 % of control
same,T/C,"endpoint: mean survival time, dose: 200.0 mg/kg/injection, schedule: Q01DX009 (ip), vehicle: saline with Tween-80",88 % of control
same,T/C,"endpoint: mean survival time, dose: 400.0 mg/kg/injection, schedule: Q01DX009 (ip), vehicle: saline with Tween-80",98 % of control
O=C(c1ccccc1)C1(c2ccccc2)OP(c2ccccc2)(c2ccccc2)(c2ccccc2)CC1c1ccccc1 (centres undefined),T/C,"endpoint: mean survival time, dose: 12.5 mg/kg/injection, schedule: Q04DX003 (ip), vehicle: saline with Tween-80",90 % of control
same,T/C,"endpoint: mean survival time, dose: 25.0 mg/kg/injection, schedule: Q04DX003 (ip), vehicle: saline with Tween-80",92 % of control
O=[N+]([O-])c1cccc(C=Nc2ccc(CCO)cc2)c1,T/C,"endpoint: mean survival time, dose: 100.0 mg/kg/injection, schedule: Q04DX002 (ip), vehicle: Klucel (hydroxypropylcellulose) (HPC)",104 % of control
same,T/C,"endpoint: mean survival time, dose: 200.0 mg/kg/injection, schedule: Q04DX002 (ip), vehicle: Klucel (hydroxypropylcellulose) (HPC)",121 % of control
same,T/C,"endpoint: mean survival time, dose: 400.0 mg/kg/injection, schedule: Q04DX002 (ip), vehicle: Klucel (hydroxypropylcellulose) (HPC)",107 % of control
CC1(O)c2ccccc2-c2nc3ccccc3nc21 (centres undefined),T/C,"endpoint: mean survival time, dose: 50.0 mg/kg/injection, schedule: Q01DX009 (ip), vehicle: saline sonified",89 % of control
same,T/C,"endpoint: mean survival time, dose: 100.0 mg/kg/injection, schedule: Q01DX009 (ip), vehicle: saline sonified",102 % of control
same,T/C,"endpoint: mean survival time, dose: 100.0 mg/kg/injection, schedule: Q04DX003 (ip), vehicle: saline sonified",94 % of control
same,T/C,"endpoint: mean survival time, dose: 200.0 mg/kg/injection, schedule: Q01DX009 (ip), vehicle: saline sonified",102 % of control
same,T/C,"endpoint: mean survival time, dose: 200.0 mg/kg/injection, schedule: Q04DX003 (ip), vehicle: saline sonified",110 % of control
same,T/C,"endpoint: mean survival time, dose: 400.0 mg/kg/injection, schedule: Q04DX003 (ip), vehicle: saline sonified",87 % of control
